Structures can show the parent of a compound that is named as a salt. Where two headings read alike, the source gives them in different places.
Columns and labels:
Guinea Pig Platelets = assay: In vitro inhibition of collagen-induced platelet aggregation, guinea pig platelet-rich plasma; type: cell-based; details: guinea pig PRP, collagen 1 μg/ml, 3 minutes of contact at 37° C.
Experimental: (§1) A study of the inhibitory activity of the compounds of formula I on platelet aggregation was carried out in vitro, i.e. by direct contact of solutions of variable concentrations of the compounds with platelets freshly separated from a sample of whole blood, taken under standardized conditions, from laboratory animals (guinea pigs) and from healthy human subjects who have not received any substances or drugs that might interfere with blood clotting. The anti-platelet-aggregating activity was also studied ex vivo/vitro, i.e. after administration of the substances claimed in guinea pigs to measure the intensity and duration of the anti-aggregating action induced by the fraction of the test product absorbed and circulating in the blood.
1.1. Studies on Guinea Pig Platelets
Blood is taken by intracardiac puncture from male Dunkin-Hartley guinea pigs (weighing about 330 g), at a rate of 4.5 ml per 0.5 ml of trisodium citrate (concentration of the aqueous solution: 1.55%) in order to prevent all trace of clotting. The platelet-rich plasma (PRP) is obtained by centrifuging the tubes of whole blood for 15 minutes at 150 g.
The PRPs are collected as. “pools”. The platelets contained in these pools are counted using a Coulter ZM haematology automatic device: if necessary, a dilution is carried out in order for the platelet concentration in the plasma to be between 200,000 and 400,000 platelets/mm^3. Simultaneously, other samples of these pools serve to prepare the platelet-poor plasma (PPP) by centrifugation at 1,500 g for 15 minutes.
The kinetic study of the platelet aggregation is carried out by adding a collagen solution (1 μg/ml) to a volume of PRP, using a Chrono-log Corporation aggregometer (490-D1 or 560 VS) which uses an optical detection of the appearance of the thrombus.
The measurements of the aggregation inhibition are carried out after 3 minutes of contact at 37° C. with agitation.

Human Platelets = assay: In vitro inhibition of collagen-induced platelet aggregation, human platelet-rich plasma; type: cell-based; details: human PRP, collagen 5 μg/ml, 3 minutes of contact at 37° C., read-out: IC50 (M) in vitro Man
Experimental: A study of the inhibitory activity of the compounds of formula I on platelet aggregation was carried out in vitro, i.e. by direct contact of solutions of variable concentrations of the compounds with platelets freshly separated from a sample of whole blood, taken under standardized conditions, from laboratory animals (guinea pigs) and from healthy human subjects who have not received any substances or drugs that might interfere with blood clotting. The anti-platelet-aggregating activity was also studied ex vivo/vitro, i.e. after administration of the substances claimed in guinea pigs to measure the intensity and duration of the anti-aggregating action induced by the fraction of the test product absorbed and circulating in the blood. 1.2 Study on Human Platelets Venous blood is taken from a group of ten healthy human subjects of the same age, by puncture into a vein of the fold of the elbow and is collected in a glass tube containing aqueous 0.129 M sodium citrate solution (1 volume of citrate solution per 9 volumes of blood). Each tube is then centrifuged a first time at 20° C. and 100 g for 15 minutes in order to obtain the platelet-rich plasma (PRP); after removing this PRP, the tube is again centrifuged at 2,000 g for 15 minutes in order this time to remove the platelet-poor plasma (PPP). For each identified sample of PRP, the platelets are counted using a Coulter ZM counter. […] A control test intended to check the possible effect of the solvents (reference value) on the platelet aggregation is introduced into each measurement series, and is measured after 3 minutes of contact at 37° C. with agitation.

[1] = system: platelet aggregation induced by collagen; assay: Ex vivo/vitro anti-platelet-aggregating activity in guinea pigs after gastric administration; design: species or system guinea pig; details: for % of g.r. inhibition guinea pig ex vivo d = 150 mg/kg −1 h: administered 1 h before blood is taken; for % of g.r. inhibition guinea pig ex vivo d = 150 mg/kg −2 h: administered 2 h before blood is taken; for anti-aggregating action ex-vivo in guinea pigs, oral dose 10 mg/kg, 1h: administered 1h before the aggregation test; for anti-aggregating action ex-vivo in guinea pigs, oral dose 10 mg/kg, 2h: administered 2h before the aggregation test
Experimental: as §1
2. ex vivo/vitro Pharmacological Study in Guinea Pigs
Evaluation of the anti-platelet-aggregating activity of the compounds is carried out in the same guinea pigs as those mentioned above (Dunkin-Hartley strain). The administration of each product in a range of doses from 150 mg/kg to 10 mg/kg and of each vehicle (5 ml/kg) is carried out via the gastric route (g.r.) 1h or 2h or 4h or 6h or 8h or 12h before blood is taken from the guinea pigs fasted the day before. The allocation of the treatments to the animals is random.
The blood is taken and then treated under the same conditions as those described above for the in vitro studies.
The results of the inhibition of the platelet aggregation obtained for each test concentration make it possible to calculate the IC50 concentration of each test product and the kinetics of the inhibitory effect and its duration of action.

[2] = Cavia porcellus, Platelet, 0.05 h

| Molecule | % of g.r. inhibition guinea pig ex vivo d = 150 mg/kg −1 h [1] [%] | % of g.r. inhibition guinea pig ex vivo d = 150 mg/kg −2 h [1] [%] | IC50 (Guinea Pig Platelets; [2]) [µM] | other results |
| --- | --- | --- | --- | --- |
| 3-{[2-(4-{4-[amino(imino)methyl]phenyl}-2-oxopiperazino)acetyl]amino}-3-(pyridyl)propanoic acid acetate [Example 21] | −78 | −79 |  | IC50 (Guinea Pig Platelets): 0.16 µM; IC50 (Human Platelets): 8.6e-07 M |
| CCOC(=O)CCNC(=O)CN1CCN(c2ccc(C(N)=NO)cc2)CC1=O [Example 1, Ethyl 3-{[12-(4-{4-[amino(hydroxyimino)methyl]phenyl}-2-oxopiperazino)acetyl]amino}propanoate] | −72 | −73 |  | IC50 (Guinea Pig Platelets): > 1000 µM |
| CCOC(=O)CC(NC(=O)CN1CCN(c2ccc(C(N)=NO)cc2)CC1=O)c1ccc2c(c1)OCO2 (stereo not shown) [Example 3, Ethyl 3-{[2-(4-{4-[amino(hydroxyimino)methyl]phenyl}-2-oxopiperazino)acetyl]amino}-3-(1,3-benzodioxol-5-yl)propanoate] | −72 | −69 |  | anti-aggregating action ex-vivo in guinea pigs, oral dose 10 mg/kg, 1h [1]: 69%; anti-aggregating action ex-vivo in guinea pigs, oral dose 10 mg/kg, 2h [1]: 72% |
| CCOC(=O)CC(CCc1ccccc1)NC(=O)CN1CCN(c2ccc(C(N)=NO)cc2)CC1=O (stereo not shown) [Example 7, Ethyl 3-{[2-(4-{4-[amino(hydroxyimino)methyl]phenyl}-2-oxopiperazino)acetyl]amino}-5-phenylpentanoate] |  |  |  | anti-aggregating action ex-vivo in guinea pigs, oral dose 10 mg/kg, 1h [1]: 72% |
| CC(=O)O.CCOC(=O)CCNC(=O)CN1CCN(c2ccc(C(=N)N)cc2)CC1=O [Example 16, Ethyl 3-{[2-(4-{4-[amino(imino)methyl]phenyl}-2-oxopiperazino)acetyl]amino}proanoate acetate] | −75 | −73 |  | IC50 (Guinea Pig Platelets): 3.8 µM |
| Cl.N=C(N)c1ccc(N2CCN(CC(=O)NCCC(=O)O)C(=O)C2)cc1 [Example 17, 3-{[2-(4-{4-[amino(imino)methyl]phenyl}-2-oxopiperazino)acetyl]amino}propanoic acid hydrochloride] | −43 | −38 | 4.8 | IC50 (Human Platelets; Platelet, 0.05 h): 5.2e-06 M |
| CC(=O)O.CCOC(=O)CC(NC(=O)CN1CCN(c2ccc(C(=N)N)cc2)CC1=O)c1ccc2c(c1)OCO2 (stereo not shown) [Example 18, Ethyl 3-{[2-(4-{4-[amino(imino)methyl]phenyl}-2-oxopiperazino)acetyl]amino}-3-(1,3-benzodioxol-5-yl)propanoate acetate] | −70 | −69 | 0.2 | IC50 (Human Platelets; Platelet, 0.05 h): 8.1e-05 M |
| Cl.N=C(N)c1ccc(N2CCN(CC(=O)NC(CC(=O)O)c3ccc4c(c3)OCO4)C(=O)C2)cc1 (stereo not shown) [Example 19, 3-{[2-(4-{4-[amino(imino)methyl]phenyl}-2-oxopiperazino)acetyl]amino}-3-(1,3-benzodioxol-5-yl)propanoic acid hydrochloride] | −69 | −78 | 0.15 | IC50 (Human Platelets; Platelet, 0.05 h): 3.4e-07 M; anti-aggregating action ex-vivo in guinea pigs, oral dose 10 mg/kg, 1h [1]: 57%; anti-aggregating action ex-vivo in guinea pigs, oral dose 10 mg/kg, 2h [1]: 24% |
| CCOC(=O)CC(CCc1ccccc1)NC(=O)CN1CCN(c2ccc(C(=N)N)cc2)CC1=O (stereo not shown) [Example 22, Ethyl 3-{[2-(4-{4-[amino(imino)methyl]phenyl}-2-oxopiperazino)acetyl]amino}-5-phenylpentanoate acetate] |  |  | 0.51 | IC50 (Human Platelets; Platelet, 0.05 h): 7.1e-05 M |
| CCOC(=O)CC(NC(=O)CN1CCN(c2ccc(C(=N)N)cc2)CC1=O)C1CCCCC1 (stereo not shown) [Example 23, Ethyl 3-{[2-(4-{4-[amino(imino)methyl]phenyl}-2-oxopiperazino)acetyl]amino}-3-cyclohexylpropanoate acetate] |  |  | 46 |  |
| CCOC(=O)CC(CC(C)C)NC(=O)CN1CCN(c2ccc(C(=N)N)cc2)CC1=O (stereo not shown) [Example 24, Ethyl 3-{[2-(4-{4-[amino(imino)methyl]phenyl}-2-oxopiperazino)acetyl]amino}-5-methylhexanoate acetate] |  |  | 4.6 |  |
| CCOC(=O)CC(NC(=O)CN1CCN(c2ccc(C(=N)N)cc2)CC1=O)C(C)(C)C (stereo not shown) [Example 25, Ethyl 3-{[2-(4-{4-[amino(imino)methyl]phenyl}-2-oxopiperazino)acetyl]amino}-4,4-dimethylpentanoate acetate] |  |  | 440 |  |
| CCOC(=O)CC(NC(=O)CN1CCN(c2ccc(C(=N)N)cc2)CC1=O)C(C)C (stereo not shown) [Example 26, Ethyl 3-{[2-(4-{4-[amino(imino)methyl]phenyl}-2-oxopiperazino)acetyl]amino}-4-methylpentanoate acetate] |  |  | 4.5 |  |
| CC(=O)O.CCOC(=O)CCNC(=O)CN1CCN(c2ccc(C(=N)N)cc2)C(=O)C1 [Example 27, Ethyl 3-{[2-(4-{4-[amino(imino)methyl]phenyl}-3-oxopiperazino)acetyl]amino}propanoate acetate] | −8 | −9 | 38 |  |
| Cl.N=C(N)c1ccc(N2CCN(CC(=O)NCCC(=O)O)CC2=O)cc1 [Example 28, 3-{[2-(4-{4-[amino(imino)methyl]phenyl}-3-oxopiperazino)acetyl]amino}propanoic acid hydrochloride] | −28 | −23 | 16 | IC50 (Human Platelets; Platelet, 0.05 h): 1.4e-06 M |
| CCOC(=O)CC(CCc1ccccc1)NC(=O)CN1CCN(c2ccc(C(=N)N3CCCCC3)cc2)CC1=O (stereo not shown) [Example 32, Ethyl 3-{[2-(4-{4-[imino(piperidino)methyl]phenyl}-2-oxopiperazino)acetyl]amino}-5-phenylpentanoate] |  |  | 2.4 |  |
| CCOC(=O)CC(CCc1ccccc1)NC(=O)CN1CCN(c2ccc(C(=N)N3CCOCC3)cc2)CC1=O (stereo not shown) [Example 33, Ethyl 3-{[2-{4-{4-[imino(morpholino)methyl]phenyl}-2-oxopiperazino)acetyl]amino)-5-phenylpentanoate] |  |  | 0.65 |  |
| CCOC(=O)CC(NC(=O)CN1CCN(c2ccc(C(=N)N3CCCCC3)cc2)CC1=O)c1ccc2c(c1)OCO2 (stereo not shown) [Example 34, Ethyl 3-(1,3-benzodioxol-5-yl)-3-{[2-(4-{4-[imino(piperidino)methyl]phenyl}-2-oxopiperazino)-acetyl]amino}propanoate hydrochloride] |  |  | 0.99 |  |
| CCOC(=O)CC(NC(=O)CN1CCN(c2ccc(C(=N)N3CCOCC3)cc2)CC1=O)c1ccc2c(c1)OCO2 (stereo not shown) [Example 35, Ethyl 3-(1,3-benzodioxol-5-yl)-3-{[2-(4-{4-[imino-(morpholino)methyl]phenyl}-2-oxopiperazino)acetyl]-amino}propanoate hydrochloride] |  |  | 0.47 |  |
| Ethyl 3-{[2-(4-{4-[amino(hydroxyimino)methyl]phenyl}-2-oxopiperazino)acetyl]amino}-3-(pyridyl)propanoate [Example 5] | −72 | −75 |  | IC50 (Guinea Pig Platelets): 100 µM |
